Where a SMILES comes first, the peptide text is derived from it.

Here are results for 68 compounds from PMC9959553, “Promising Antifungal Molecules against Mucormycosis Agents Identified from Pandemic Response Box®: In Vitro and In Silico Analyses” (Journal of Fungi, 2023).

In the assay the test system is R. oryzae UCP1295. Put plainly: Screening of the Pandemic Response Box library at 5 µM. Format: cell-based, Rhizopus oryzae. The settings on record: 48 h, Table S1, mean of the four values. The method, then: Rhizopus oryzae UCP is the most prevalent Mucorales species in human infections and was used as a reference strain to screen the Pandemic Response Box® library. Screening was performed according to Rollin-Pinheiro and colleagues. Each compound was diluted in RPMI 1640 medium (Sigma Chemical Co., St. Louis, MO, USA), supplemented with 2% glucose and buffered with 3-(N-morpholino) propanesulfonic acid (MOPS) (Sigma Chemical Co., St. Louis, MO, USA) (0.165 mol/L, pH 7.2, from here on referred to as ‘supplemented RPMI’) to reach 5 μM in 96-well microtiter plates. Posaconazole (5 μM) and supplemented RPMI containing 1% DMSO were used as controls (both from Sigma Chemical Co., St. Louis, MO, USA). Conidia (2 × 10^5/mL) were added and incubated for 48 h at 37 °C in a 5% CO2 atmosphere. […] An inhibition of at least 60% was defined as the cut-off to select the promising drugs with antifungal activity against the Rhizopus species.
On to `O=C1NC(=O)C(Br)=C1Br` [MMV1578554], for which the “% of growth inhibition, Mean” value is on record as -14.5%.
The same measure for `O=C(Nc1ccc(F)cc1)c1nn(-c2ccccc2)c(=O)cc1Cl` [MMV1578555]: -18.6%; for `C[C@H]1CC[C@@]2(O)C(C)(C)[C@@H]3CC[C@@]2(C)[C@H]1C3` [MMV1578556]: -4.8%.
For `Cc1c(N)cccc1Cn1ccc(OCCc2cccs2)cc1=O` [MMV1578557] the value was -5.6%; for `CCc1oc2ccccc2c1C(=O)c1ccc(O)cc1` [MMV1578558], -39.8%.
For `CO[C@@]1(NC(=O)Cc2cccs2)C(=O)N2C(C(=O)O)=C(COC(N)=O)CS[C@@H]21` [MMV1578559] the value was -22.5%; for `NCC(=O)Nc1ccc(-n2nc(C(F)(F)F)cc2-c2ccc3c(ccc4ccccc43)c2)cc1` [MMV1578560], -14.6%.
`CCCCCCCc1[nH]c2ccccc2c(=O)c1O` [MMV1578561]: the “% of growth inhibition, Mean” value is recorded as -24.4%.
The same measure for `O=S(=O)(Nc1ccccc1)c1ccc(NC(=S)Nc2ccccc2)cc1` [MMV1578562]: -19.4%.
With `Fc1ccc2c(/C=C/c3nnn[nH]3)c[nH]c2c1` [MMV1578563], the “% of growth inhibition, Mean” value is listed as -0.5%.
The same measure for `CCc1cc(O)c(Oc2ccc(C(N)=O)cc2F)cc1F` [MMV1578564]: -17.4%; for `CSC[C@H]1CN(Cc2c[nH]c3c(N)ncnc23)C[C@@H]1O` [MMV1578565]: -14.4%.
As to `NC[C@H]1OB(O)c2c(OCCCO)cccc21` [MMV1578566], the “% of growth inhibition, Mean” value is on record as -20.6%.
For `O=c1ccc2ncc(=O)n3c2n1CC3CN1CCC(NCc2cc3c(cn2)OCCC3)CC1` (centres unmarked) [MMV1578568] the value was -14.8%; for `O=C1NC(=S)N/C1=C\c1cc(Br)cc(Br)c1O` [MMV1578569], -14.5%.
For `CCC(C)NCC(O)Cn1c2ccc(Cl)cc2c2cc(Cl)ccc21` (centres unmarked) [MMV1578570] the value was -22.7%.
Consider `CC(C)(C)c1cc(C(=O)/C(C#N)=N/Nc2cccc(Cl)c2)no1` [MMV1578571], for which the “% of growth inhibition, Mean” value is given as -7.2%.
For `COc1cc(NC(=O)CN2C(=O)NC(c3ccccc3)(c3ccccc3)C2=O)cc(OC)c1` [MMV1578572] the value was -14.6%; for `COc1ccc(SCC(=O)N2c3ccccc3Sc3ccccc32)cc1` [MMV1578573], -3.7%; for `CN(C)[C@@H]1C(=O)C(C(N)=O)=C(O)[C@@]2(O)C(=O)C3=C(O)c4c(O)c(NC(=O)CN5CCCC5)cc(F)c4C[C@H]3C[C@@H]12.Cl.Cl` [MMV1578574], -44.3%.
For `CC(=O)O[C@H]1C[C@@]2(C)[C@@H](C[C@@H](O)[C@H]3[C@@]4(C)CC[C@@H](O)[C@@H](C)[C@@H]4CC[C@@]32C)/C1=C(\CCC=C(C)C)C(=O)O` [MMV1578575] the value was -21.4%; for `O=C(Cc1ccccc1F)Nc1nc2ccccc2[nH]1` [MMV1578576], -39.7%.
The same measure for `O=C(NC12CC3CC(CC(C3)C1)C2)c1cc2ccccc2[nH]1` [MMV1578577]: -4.8%.
Turning to `O=C(Nc1nnc(-c2ccccc2)o1)c1ccc(F)cc1` [MMV1578578], the “% of growth inhibition, Mean” value is listed as -32.9%.
For `COc1ccc(C)cc1NC(=O)c1ccc(S(=O)(=O)N2CCCCC2)cc1` [MMV1578579] the value was -3.3%; for `CCCCOC(=O)Nc1cc2nc(C3CCCCC3)[nH]c2cc1N(CC)CC` [MMV1578842], -0.4%; for `O=c1cc(NCCCN[C@@H]2CCOc3c(Br)cc(Br)cc32)[nH]c2ccsc12` [MMV1578884], -1.3%.
For `O=c1nc(N2CCN(CC3CCCCC3)CC2)sc2c([N+](=O)[O-])cc(C(F)(F)F)cc12` [MMV1578885] the value was -14.2%; for `c1ccc(Cn2c(-c3ccccn3)nc3ccccc32)cc1` [MMV1578886], -11.3%; for `Fc1ccc2c(/C=C/c3cccnc3)c[nH]c2c1` [MMV1578889], -15.1%.
The same measure for `O=S(=O)(Nc1cccc2cccnc12)c1ccccc1` [MMV1578890]: 0.6%; for `O=C(Cn1cnc2ccccc2c1=O)Nc1ccccc1` [MMV1578891]: -16.0%.
`Cc1ccc(NC(=O)c2cc(Cl)ccc2O)cc1` [MMV1578897]: the “% of growth inhibition, Mean” value is -1.2%.
In the case of `CCOC(=O)N1CCN(c2ccc(Cl)cc2)CC1` [MMV1578898], the “% of growth inhibition, Mean” value came to 0.3%.
The same measure for `CCCC(=O)OCCc1ccccc1` [MMV1578899]: -2.6%; for `CC(Oc1ccc(Cl)cc1Cl)C(=O)NCc1ccc2c(c1)OCO2` (centres unmarked) [MMV1578925]: -25.4%; for `C=C(C)n1c(=O)n(Cc2ccccc2C)c2ccccc21` [MMV1579354]: -31.3%.
The same measure for `O=c1cc(OCc2ccccc2)ccn1Cc1ccccc1` [MMV1579775]: -7.1%; for `NS(=O)(=O)c1ccc(NC(=O)NC(c2ccccc2)c2ccccc2)cc1` [MMV1579776]: -24.2%.
For `O=[N+]([O-])c1cn(Cc2nc(O)nc(O)c2Br)cn1` [MMV1579777] the value was -6.3%; for `C[C@H](NC(CC(=O)c1ccccc1C(F)(F)F)C(=O)O)c1ccccc1` (some centres unmarked) [MMV1579778], -13.5%.
`CC(=O)Nc1cc(NS(=O)(=O)c2ccc(Cl)cc2)cc2c(Cl)n[nH]c12` [MMV1579779]: the “% of growth inhibition, Mean” value is listed as -33.3%.
For `CC(C)n1cnc2c(NCc3ccccc3)nc(NCc3ccccc3)nc21` [MMV1579780] the value was -15.2%.
The same measure for `CC(Cc1ccccc1)C(=O)Nc1ccc(Cl)cc1C(=O)O` (centres unmarked) [MMV1579781]: -32.3%.
Consider `Cc1cccc(CC(=O)N[C@H]2CCOC2=O)c1` [MMV1579782], for which the “% of growth inhibition, Mean” value is on record as -2.1%.
Take `CCCCSc1nc(N)c2[nH]c(=O)c(=O)n(Cc3ccccc3)c2n1` [MMV1579783]: the “% of growth inhibition, Mean” value is given as -34.5%.
For `O=C(Nc1ccccc1C(=O)O)c1cccc(Oc2ccccc2)c1` [MMV1579784] the value was -27.4%; for `N#CCN1C(=O)COc2cc(F)c(N3C(=O)c4ccccc4C3=O)cc21` [MMV1579785], -18.3%; for `Cl.Cl.NCCCc1ccccc1C(=O)Nc1ncc([N+](=O)O)s1` [MMV1579786], -16.7%.
For `O=C(CP(=O)(O)O)NCCc1cccc(Oc2ccccc2)c1` [MMV1579787] the value was -30.1%.
In the case of `Cc1c(CN(C)C(=O)/C=C/c2cnc3c(c2)C(C)(C)C(=O)N3)oc2ccccc12` [MMV1579788], the “% of growth inhibition, Mean” value was -28.8%.
On to `Cl.N=C(N)c1ccc(COc2ccc(Cl)cc2)cc1` [MMV1579844], for which the “% of growth inhibition, Mean” value was -3.3%.
Regarding `O=C(NCc1cccc2ccccc12)c1cccs1` [MMV1579845], the “% of growth inhibition, Mean” value is reported as -15.7%.
Regarding `COc1cc(Cc2cc(N)nc(N)n2)cc(OC)c1OC` [MMV1579846], the “% of growth inhibition, Mean” value is -11.6%.
For `Cc1ccn2c(C(=O)NCc3ccccc3)c(C)nc2c1` [MMV1579847] the value was -7.2%; for `CC(N)C(=O)NC(CCCCN)C(=O)NC(CCCNC(=N)N)C(=O)NC(Cc1c[nH]cn1)C(=O)NC(Cc1c[nH]cn1)C(=O)NCC(=O)NC(Cc1ccc(O)cc1)C(=O)NC(CCCCN)C(=O)NC(CCCNC(=N)N)C(=O)NC(CCCCN)C(=O)NC(Cc1ccccc1)C(=O)NC(Cc1c[nH]cn1)C(N)=O` (centres unmarked) [MMV1579849] (H-AKRHHGYKRKFH-NH2; configuration not given here), -25.8%.
The same measure for `N[C@@H]1CN(c2c(F)cc3c(=O)c(C(=O)O)cn([C@@H]4C[C@@H]4F)c3c2Cl)CC12CC2` [MMV1579850]: -4.9%.
For `O=C(O)c1ccccc1Sc1ncnc2sc3c(c12)CCC3` [MMV1579878], the “% of growth inhibition, Mean” value was -41.9%.
Consider `COc1cc(NCc2ccc3nc(N)nc(N)c3c2C)cc(OC)c1OC` [MMV1580173], for which the “% of growth inhibition, Mean” value is listed as 46.8%.
The same measure for `C[C@H](Cn1cnc2c(N)ncnc21)OCP(=O)(O)O` [MMV1580478]: -19.5%; for `CN(C)CC(=O)Nc1ccc2[nH]c(=O)c3ccccc3c2c1` [MMV1580480]: -3.9%; for `CN1CCN(Cc2ccc(-c3cnc4[nH]cc(-c5ccc6[nH]ccc6c5)c4c3)cc2)CC1` [MMV1580482]: 1.5%.
Regarding `CN(C)CCCOc1ccc(-c2ccc3ncc4c(c3c2)n(C2CCOCC2)c(=O)n4C)cn1` [MMV1580483], the “% of growth inhibition, Mean” value is recorded as -5.4%.
The same measure for `COc1ccccc1NC(=O)c1ccccc1Sc1ccc([N+](=O)[O-])cc1` [MMV1580484]: -7.7%; for `COc1ccc(OCc2ccc(COc3c(Cl)cccc3Cl)cc2)c(Cl)c1` [MMV1580485]: -2.8%.
For `Cc1nc(N(C)C(=O)Cc2ccc(-c3ccccn3)cc2)sc1S(N)(=O)=O` [MMV1580486] the value was -4.4%; for `C/C(=N\NC(=O)C1CC1c1ccccc1)c1ccc(NC(=O)c2ccco2)cc1` (centres unmarked) [MMV1580487], 0.3%; for `CN(C)CCCNC(=O)c1ccc(-c2cc(O)c3ncccc3c2)cc1` [MMV1580488], 37.5%.
